Test: Stability of cannabinoid compounds and Vitamin E components in Beverage 2 (AB Red) by LCMSMS
Format: physicochemical

Measured: Stability of Plant-Derived Cannabinoid Compounds in AB Red

CCCCCc1cc(O)c2c(c1)OC(C)(CCC=C(C)C)C=C2 (centres unmarked) [CBC, cannabichromene]
0.283 µg/mL: stored at 8° C., 16 days
0.288 µg/mL: stored at 8° C., 9 days | stored at 8° C., 10 days
0.29 µg/mL: stored at 21-25° C., 0 days | stored at 21-25° C., 3 days | stored at 21-25° C., 10 days | stored at 21-25° C., 11 days | stored at 21-25° C., 18 days | stored at 21-25° C., 19 days | stored at 21-25° C., 22 days | stored at 21-25° C., 24 days | stored at 21-25° C., 29 days | stored at 21-25° C., 30 days | stored at 21-25° C., 60 days | stored at 21-25° C., 120 days | stored at 21-25° C., 150 days | stored at 21-25° C., 210 days | stored at 21-25° C., 270 days | stored at 21-25° C., 300 days | stored at 21-25° C., 330 days
0.289 µg/mL: stored at 8° C., 1 days | stored at 8° C., 18 days | stored at 8° C., 120 days
0.282 µg/mL: stored at 8° C., 17 days | stored at 8° C., 30 days | stored at 8° C., 210 days | stored at 8° C., 360 days | stored at 8° C., 390 days | stored at 8° C., 450 days
0.277 µg/mL: stored at 8° C., 420 days
0.281 µg/mL: stored at 8° C., 150 days
0.27 µg/mL: stored at 21-25° C., 510 days | stored at 21-25° C., 570 days
0.280 µg/mL: stored at 8° C., 240 days | stored at 8° C., 300 days
0.285 µg/mL: stored at 8° C., 3 days | stored at 8° C., 12 days | stored at 8° C., 180 days
0.28 µg/mL: stored at 21-25° C., 1 days | stored at 21-25° C., 2 days | stored at 21-25° C., 5 days | stored at 21-25° C., 8 days | stored at 21-25° C., 9 days | stored at 21-25° C., 12 days | stored at 21-25° C., 15 days | stored at 21-25° C., 16 days | stored at 21-25° C., 17 days | stored at 21-25° C., 23 days | stored at 21-25° C., 25 days | stored at 21-25° C., 26 days | stored at 21-25° C., 90 days | stored at 21-25° C., 180 days | stored at 21-25° C., 240 days | stored at 21-25° C., 360 days | stored at 21-25° C., 390 days | stored at 21-25° C., 420 days | stored at 21-25° C., 450 days | stored at 21-25° C., 480 days | stored at 21-25° C., 540 days
0.267 µg/mL: stored at 8° C., 510 days
0.266 µg/mL: stored at 8° C., 570 days
0.292 µg/mL: stored at 8° C., 2 days | stored at 8° C., 15 days
0.278 µg/mL: stored at 8° C., 60 days | stored at 8° C., 330 days
0.287 µg/mL: stored at 8° C., 19 days | stored at 8° C., 22 days | stored at 8° C., 23 days | stored at 8° C., 25 days | stored at 8° C., 26 days | stored at 8° C., 90 days
0.291 µg/mL: stored at 8° C., 24 days
0.286 µg/mL: stored at 8° C., 5 days | stored at 8° C., 8 days
0.290 µg/mL: stored at 8° C., 0 days
0.284 µg/mL: stored at 8° C., 11 days | stored at 8° C., 29 days | stored at 8° C., 270 days
0.274 µg/mL: stored at 8° C., 480 days
0.271 µg/mL: stored at 8° C., 540 days
